Source: patent US20260199484A1, “PROTAC DEGRADERS OF MLLT1 AND/OR MLLT3” (DARK BLUE THERAPEUTICS LTD, priority 2024, published 2026)

Key:
MLLT1 = target: T1, MLLT1 (Homo sapiens, UniProt Q03111); assay: MLLT1 HTRF IC50 determination assay (H3K9cro peptide displacement); assay type: binding
T1 sequence (Q03111 1-559): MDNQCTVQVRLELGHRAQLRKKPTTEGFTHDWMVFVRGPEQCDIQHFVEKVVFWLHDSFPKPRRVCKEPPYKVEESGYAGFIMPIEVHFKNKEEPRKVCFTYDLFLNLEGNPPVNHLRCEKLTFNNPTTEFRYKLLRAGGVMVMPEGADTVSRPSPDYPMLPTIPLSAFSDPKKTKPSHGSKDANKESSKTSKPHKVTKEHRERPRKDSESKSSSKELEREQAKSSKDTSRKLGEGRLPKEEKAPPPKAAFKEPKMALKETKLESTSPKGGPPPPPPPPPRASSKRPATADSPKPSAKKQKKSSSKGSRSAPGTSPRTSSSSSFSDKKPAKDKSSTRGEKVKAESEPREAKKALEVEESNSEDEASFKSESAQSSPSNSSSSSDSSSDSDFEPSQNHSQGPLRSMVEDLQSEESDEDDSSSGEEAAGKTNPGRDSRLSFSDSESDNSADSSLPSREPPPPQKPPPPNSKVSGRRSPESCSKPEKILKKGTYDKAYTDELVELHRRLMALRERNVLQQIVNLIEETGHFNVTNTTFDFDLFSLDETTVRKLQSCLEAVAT
From the text: (§1) This procedure is intended to measure the interaction between YEATS proteins and histone peptides modified by an appropriate epigenetic mark and can be used to assay compounds which bind to the YEATS proteins and inhibit this interaction. The assay uses 6His tagged MLLT1 or MLLT3 with an anti-6His antibody conjugated with Eu^3+ chelate (donor) and a biotinylated peptide with Streptavidin conjugated XL-665 (acceptor). When the donor and acceptor labels are in close proximity, by binding of the peptide by MLLT1 or MLLT3, the excitation of the donor (337 nm) triggers a Fluorescence Resonance Energy Transfer (FRET) to the acceptor which then fluoresces at specific wavelength (665 nm).
(§2) This step optimises the protein/peptide ratio that will be used in HTRF screening assay in order to allow the best signal-to-noise ratio. Each new purified protein should be titrate this way as the signal-to-noise ratio may differ from different protein batches. Displacement assay for MLLT1 and MLLT3 was performed by using H3K9 cro peptide (ARTKQTAR(Kcrot)STGGKAPRKQLYK(biotin)).
(§3) A serial dilution of 4× solution of biotinylated peptide was prepared in assay buffer (25 mM HEPES, 20 mM NaCl, 0.05% BSA, 0.05% Tween-20, pH 7.0) covering concentrations from 3.2 μM to 0.2 nM. and 5 μL of each dilution were transferred horizontally to fill 15 columns of a white ProxiPlate-384 Plus shallow well Microplate (Perkin Elmer, USA). A sixteenth column of buffer was also included for a background reference. In parallel, a serial dilution of the 6His-tag protein of interest was prepared in the same way and 5 μL of each dilution were vertically added to the wells containing the peptide dilutions. Buffer has been transferred to the last line of the plate in order to make a no-protein reference. The microplate has been covered and incubated 1 hour at room temperature. A 2× detection mix was prepared in assay buffer by diluting streptavidin conjugated with XL-665 (610SAXLB, Cisbio Bioassays, France) to 1/2000 and anti-6His(Eu) chelate (LANCE Eu-W1024 Anti-6×His, ADO111, Perkinelmer LAS (UK)LTD) to 1/20000, 10 μL were added to each well and the plate has been incubated for 1 to 24 hours at room temperature in the dark. The plate was read in the Pherastar using the HTRF module with dual emission protocol (A=ex. 320 nm em. 665 nm, B=ex. 320 nm em. 620 nm).
(§4) The HTRF ratio was calculated as channel A/B*10000 and the specific signal as follow: specific signal=HTRF Ratio Positive signal—HTRF Ratio Negative signal (without protein). The concentrations of protein and peptide that allow the maximum specific signal without saturation were selected to perform HRTF screening assay described below.
(§5) The compounds were dissolved in DMSO at a stock concentration of 10 mM and dispensed into microplate using the Echo acoustic liquid handler (Labcyte, Beckman Coulter, USA). The assay covers a window of compound concentrations from 20 μM to 20 nM spread in 11 data points in duplicate. Solvent and compound controls were added to each plate in order to calculate the background signal.
(§6) Ten microliters of 2× mix of 6His-protein and biotinylated peptide, the concentrations were determined above, were added to the dispensed compounds and incubated for one hour at room temperature in the dark. Ten microliters of the 2× detection mix was added to each well and the plate was incubated for another hour at room temperature in the dark and the plate was read in order to calculate the HTRF specific signal. The % inhibition values as follows:
(§7) The IC50 values were determined by plotting % inhibition vs compound concentration and fitting the data to a non-linear sigmoidal dose response equation (4 parameter fit): […]

MLLT3 = target: T2, MLLT3 (Homo sapiens, UniProt P42568); assay: MLLT3 HTRF IC50 determination assay (H3K9cro peptide displacement); assay type: binding
T2 sequence (P42568 1-568): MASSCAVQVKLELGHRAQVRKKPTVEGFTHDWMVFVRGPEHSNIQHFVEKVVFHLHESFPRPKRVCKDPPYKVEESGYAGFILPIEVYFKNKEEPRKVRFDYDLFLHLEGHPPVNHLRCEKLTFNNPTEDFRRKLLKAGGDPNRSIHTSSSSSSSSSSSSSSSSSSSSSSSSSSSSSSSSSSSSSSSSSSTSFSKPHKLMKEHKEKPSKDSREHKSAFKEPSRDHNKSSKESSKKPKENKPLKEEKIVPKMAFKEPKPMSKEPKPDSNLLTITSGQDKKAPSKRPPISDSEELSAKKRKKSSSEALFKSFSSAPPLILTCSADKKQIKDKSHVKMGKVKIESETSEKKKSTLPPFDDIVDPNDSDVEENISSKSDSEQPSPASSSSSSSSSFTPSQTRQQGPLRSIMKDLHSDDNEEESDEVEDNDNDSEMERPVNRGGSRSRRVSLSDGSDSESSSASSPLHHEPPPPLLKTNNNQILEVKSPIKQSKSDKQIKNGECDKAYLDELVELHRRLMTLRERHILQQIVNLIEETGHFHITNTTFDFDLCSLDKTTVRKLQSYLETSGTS
From the text: as §1, §2, §3, §4, §5, §6, §7

MV4-11 cells = assay: MV4-11 cellular proliferative assay, Assay Format A (CellTiter-Glo, 120 h); assay type: cell-based; conditions: Homo sapiens, Assay method A, Table 3, read-out: MV4-11 antiproliferative IC50
In short: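 MV4-11 cells seeded at 50 cells/well and exposed for 120 h to compound (10 semi-log dilutions, top 30 μM) or DMSO. Viability by CellTiter-Glo luminescence, normalised to DMSO and reference-compound wells; AC50 from Hill fit.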

Question: For `CN1CCCC1c1cc2cnc(NC(=O)c3ccc4c(cnn4C)c3)cc2[nH]1` (single isomer, unassigned) [Example 79, 1-methyl-N-{2-[(rel-2R)-1-methylpyrrolidin-2-yl]-1H-pyrrolo[3,2-c]pyridin-6-yl}indazole-5-carboxamide], which IC50 (MLLT1; category, Table 4) is on record?
Answer: The IC50 was ≤ 100 nM.

Question: What about the IC50 (MLLT3; category, Table 4) of the same compound?
Answer: The IC50 was ≤ 100 nM.

Question: For `Cc1nn(C)c2cc(C(=O)Nc3cc4[nH]c(C5CCCN5C)c(F)c4cn3)ccc12` (single isomer, unassigned) [Example 89, N-{3-fluoro-2-[(rel-2S)-1-methylpyrrolidin-2-yl]-1H-pyrrolo[3,2-c]pyridin-6-yl}-1,3-dimethylindazole-6-carboxamide], which IC50 (MLLT1; category, Table 4) is on record?
Answer: The IC50 was 100 to 1000 nM.

Question: And the IC50 (MLLT3; category, Table 4)?
Answer: The IC50 was 1000 to 10000 nM.

Question: For `Cc1nn(C)c2cc(C(=O)Nc3cc4[nH]c([C@H]5CCCN5C)cc4cn3)ccc12` (single isomer, unassigned) [Example 76], which IC50 (MLLT1; Table 5) is on record?
Answer: The IC50 was 43 nM.

Question: And the IC50 (MLLT1; category, Table 4)?
Answer: Its IC50 is ≤ 100 nM.

Question: And the IC50 (MV4-11 cells)?
Answer: The IC50 was 40 nM.

Question: What about the IC50 (MLLT3; Table 5) of the same compound?
Answer: The IC50 was 81 nM.

Question: What about the IC50 (MLLT3; category, Table 4) of the same compound?
Answer: Its IC50 is ≤ 100 nM.

Question: What does the source list for `Cc1nn(C)c2cc(C(=O)Nc3cc4[nH]c(C5CCCN5C)c(F)c4cn3)ccc12` (single isomer, unassigned) [Example 88, N-{3-fluoro-2-[(rel-2R)-1-methylpyrrolidin-2-yl]-1H-pyrrolo[3,2-c]pyridin-6-yl}-1,3-dimethylindazole-6-carboxamide]?
Answer: IC50 (MLLT1; Table 5): 17 nM; IC50 (MLLT1; category, Table 4): ≤ 100 nM; IC50 (MLLT3; Table 5): 37 nM; IC50 (MLLT3; category, Table 4): ≤ 100 nM

Question: `Cc1nn(C)c2cc(C(=O)Nc3cc4[nH]c(C5CCCN5C)cc4cn3)ccc12` (racemic) [Example 75, rac-1,3-dimethyl-N-(2-(1-methylpyrrolidin-2-yl)-1H-pyrrolo[3,2-c]pyridin-6-yl)-1H-indazole-6-carboxamide] was tested. Which IC50 (MLLT1; category, Table 4) did it give?
Answer: Its IC50 is ≤ 100 nM.

Question: And the IC50 (MLLT3; category, Table 4)?
Answer: Its IC50 is 100 to 1000 nM.

Question: `CN1CCCC1c1cc2cnc(NC(=O)c3ccc4c(cnn4C)c3)cc2[nH]1` (single isomer, unassigned) [Example 78, 1-methyl-N-{2-[(rel-2S)-1-methylpyrrolidin-2-yl]-1H-pyrrolo[3,2-c]pyridin-6-yl}indazole-5-carboxamide] was tested. Which IC50 (MLLT1; category, Table 4) did it give?
Answer: Its IC50 is 1000 to 10000 nM.

Question: And the IC50 (MLLT3; category, Table 4)?
Answer: The IC50 was 1000 to 10000 nM.

Question: Which results are given for `Cc1c(C2CCCN2C)[nH]c2cc(NC(=O)c3ccc4c(C)nn(C)c4c3)ncc12` (single isomer, unassigned) [Example 90, 1,3-dimethyl-N-{3-methyl-2-[(rel-2R)-1-methylpyrrolidin-2-yl]-1H-pyrrolo[3,2-c]pyridin-6-yl}indazole-6-carboxamide]?
Answer: IC50 (MLLT1; Table 5): 12 nM; IC50 (MLLT1; category, Table 4): ≤ 100 nM; IC50 (MLLT3; Table 5): 45 nM; IC50 (MLLT3; category, Table 4): ≤ 100 nM

Question: For `Cc1c(C2CCCN2C)[nH]c2cc(NC(=O)c3ccc4c(C)nn(C)c4c3)ncc12` (single isomer, unassigned) [Example 91, 1,3-dimethyl-N-{3-methyl-2-[(rel-2S)-1-methylpyrrolidin-2-yl]-1H-pyrrolo[3,2-c]pyridin-6-yl}indazole-6-carboxamide], which IC50 (MLLT1; category, Table 4) is on record?
Answer: Its IC50 is 1000 to 10000 nM.

Question: What about the IC50 (MLLT3; category, Table 4) of the same compound?
Answer: The IC50 was 1000 to 10000 nM.

Question: What does the source list for `CCN1CCCC1c1cc2cnc(NC(=O)c3ccc4c(C)nn(C)c4c3)cc2[nH]1` (single isomer, unassigned) [Example 84, N-{2-[(rel-2R)-1-ethylpyrrolidin-2-yl]-1H-pyrrolo[3,2-c]pyridin-6-yl}-1,3-dimethylindazole-6-carboxamide]?
Answer: IC50 (MLLT1; category, Table 4): 100 to 1000 nM; IC50 (MLLT3; category, Table 4): 100 to 1000 nM

Question: `Cc1nc(NC(=O)c2ccc3c(C)nn(C)c3c2)cc2[nH]c(C3CCCN3C)cc12` (single isomer, unassigned) [Example 92, 1,3-dimethyl-N-{4-methyl-2-[(rel-2R)-1-methylpyrrolidin-2-yl]-1H-pyrrolo[3,2-c]pyridin-6-yl}indazole-6-carboxamide] was tested. Which IC50 (MLLT1; Table 5) did it give?
Answer: The IC50 was 37 nM.

Question: What about the IC50 (MLLT1; category, Table 4) of the same compound?
Answer: Its IC50 is ≤ 100 nM.

Question: What about the IC50 (MLLT3; Table 5) of the same compound?
Answer: Its IC50 is 63 nM.

Question: What about the IC50 (MLLT3; category, Table 4) of the same compound?
Answer: The IC50 was ≤ 100 nM.

Question: What does the source list for `Cc1nc(NC(=O)c2ccc3c(C)nn(C)c3c2)cc2[nH]c(C3CCCN3C)cc12` (single isomer, unassigned) [Example 93, 1,3-dimethyl-N-{4-methyl-2-[(rel-2S)-1-methylpyrrolidin-2-yl]-1H-pyrrolo[3,2-c]pyridin-6-yl}indazole-6-carboxamide]?
Answer: IC50 (MLLT1; category, Table 4): 1000 to 10000 nM; IC50 (MLLT3; category, Table 4): 1000 to 10000 nM
